Laboratory results published in ChEMBL document CHEMBL1201862, “PubChem BioAssay data set” (2004).
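Grown in 96-well plates, cells were treated for 48 hours with each compound at five concentrations. Insufficient inhibition: endpoint recorded as highest concentration tested. GI50 = concentration required for 50% inhibition of growth.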 The source made the active and inactive calls. Cut-off read from the data, not from the text of the source: active = GI50 up to about 1.1 µM and inactive = higher.

Legend:
Experiment in all cases: NCI tumour cell line growth inhibition, 48 h
HT-29 = system: HT-29
LOX IMVI = system: LOX IMVI
SNB-19 = system: SNB-19
U-251 = system: U-251
OVCAR-3 = system: OVCAR-3
MDA-MB-231 = system: MDA-MB-231
SR = system: SR
HOP-62 = system: HOP-62
NCI-H522 = system: NCI-H522
BT-549 = system: BT-549
NCI-H23 = system: NCI-H23
HCT-116 = system: HCT-116
TK-10 = system: TK-10
M14 = system: M14
HCT-15 = system: HCT-15
SK-MEL-5 = system: SK-MEL-5
OVCAR-5 = system: OVCAR-5
MCF7 = system: MCF7
DU-145 = system: DU-145
Hs-578T = system: Hs-578T

OC(C1=C/C(=C\c2ccncc2)c2ccccc21)c1ccncc1 (stereo not given)
GI50 (HT-29): 11.8 µM (inactive) | GI50 (LOX IMVI): 12.1 µM (inactive) | GI50 (SNB-19): 19.1 µM (inactive) | GI50 (U-251): 14.7 µM (inactive) | GI50 (OVCAR-3): 11.1 µM (inactive) | GI50 (MDA-MB-231): 6.98 µM (inactive) | GI50 (SR): 5.4 µM (inactive) | GI50 (HOP-62): 10.2 µM (inactive) | GI50 (NCI-H522): 9.48 µM (inactive) | GI50 (BT-549): 19 µM (inactive) | GI50 (NCI-H23): 12.4 µM (inactive) | GI50 (HCT-116): 13.6 µM (inactive) | GI50 (TK-10): 13.6 µM (inactive) | GI50 (M14): 12.4 µM (inactive) | GI50 (HCT-15): 16.5 µM | GI50 (SK-MEL-5): 3.21 µM (inactive) | GI50 (OVCAR-5): 15.8 µM (inactive) | GI50 (MCF7): 9.86 µM (inactive) | GI50 (DU-145): 17 µM (inactive) | GI50 (Hs-578T): 12.2 µM (inactive)

COc1ccc(C2NC(=S)Nc3c2c(=O)oc2c3ccc3ccccc32)cc1 (stereo not given)
GI50 (HT-29): > 100 µM (inactive) | GI50 (LOX IMVI): > 100 µM (inactive) | GI50 (SNB-19): 35.7 µM (inactive) | GI50 (U-251): 40.6 µM (inactive) | GI50 (OVCAR-3): > 100 µM (inactive) | GI50 (MDA-MB-231): 57.8 µM (inactive) | GI50 (SR): 48.4 µM (inactive) | GI50 (HOP-62): 87.9 µM (inactive) | GI50 (NCI-H522): > 100 µM (inactive) | GI50 (BT-549): 45.7 µM (inactive) | GI50 (NCI-H23): 67.3 µM (inactive) | GI50 (HCT-116): 78.2 µM (inactive) | GI50 (TK-10): 99.3 µM (inactive) | GI50 (M14): 45.6 µM (inactive) | GI50 (HCT-15): 53.7 µM | GI50 (SK-MEL-5): > 100 µM (inactive) | GI50 (OVCAR-5): > 100 µM (inactive) | GI50 (MCF7): > 100 µM (inactive) | GI50 (DU-145): > 100 µM (inactive) | GI50 (Hs-578T): 75.7 µM (inactive)

CC(C)(C)OC(=O)N[C@H]1CC2(C=C(Cl)C(=O)C(Cl)=C2)OC1=O
GI50 (HT-29): 11.5 µM (inactive) | GI50 (LOX IMVI): 13.2 µM (inactive) | GI50 (SNB-19): > 100 µM (inactive) | GI50 (U-251): 20.7 µM (inactive) | GI50 (OVCAR-3): 14.8 µM (inactive) | GI50 (MDA-MB-231): 17.1 µM (inactive) | GI50 (SR): 1.93 µM (inactive) | GI50 (HOP-62): > 58.9 µM (inactive) | GI50 (NCI-H522): 3.07 µM (inactive) | GI50 (BT-549): 16 µM (inactive) | GI50 (NCI-H23): 17.3 µM (inactive) | GI50 (HCT-116): 14.8 µM (inactive) | GI50 (TK-10): 17.5 µM (inactive) | GI50 (M14): 14.4 µM (inactive) | GI50 (HCT-15): 14.2 µM | GI50 (SK-MEL-5): 19.1 µM (inactive) | GI50 (OVCAR-5): 19.5 µM (inactive) | GI50 (MCF7): 6.79 µM (inactive) | GI50 (DU-145): 27.9 µM (inactive) | GI50 (Hs-578T): 26.4 µM (inactive)

CCc1n[nH]c(=O)n1/N=C/c1ccccc1Cl
GI50 (HT-29): > 100 µM (inactive) | GI50 (LOX IMVI): > 100 µM (inactive) | GI50 (SNB-19): > 100 µM (inactive) | GI50 (U-251): 65.8 µM (inactive) | GI50 (OVCAR-3): > 100 µM (inactive) | GI50 (MDA-MB-231): > 100 µM (inactive) | GI50 (SR): > 100 µM (inactive) | GI50 (HOP-62): 76.2 µM (inactive) | GI50 (NCI-H522): > 100 µM (inactive) | GI50 (BT-549): > 100 µM (inactive) | GI50 (NCI-H23): > 100 µM (inactive) | GI50 (HCT-116): > 100 µM (inactive) | GI50 (TK-10): > 100 µM (inactive) | GI50 (M14): > 100 µM (inactive) | GI50 (HCT-15): > 100 µM | GI50 (SK-MEL-5): > 100 µM (inactive) | GI50 (OVCAR-5): > 100 µM (inactive) | GI50 (MCF7): > 100 µM (inactive) | GI50 (DU-145): > 100 µM (inactive) | GI50 (Hs-578T): 2.69 µM (inactive)

COc1cc2c(/C=C3/C(=O)N(C)c4ccc(O)cc43)c(Cl)[nH]c2cc1C
GI50 (HT-29): 0.401 µM (active) | GI50 (LOX IMVI): 0.594 µM (active) | GI50 (SNB-19): 0.456 µM (active) | GI50 (U-251): 0.402 µM (active) | GI50 (OVCAR-3): 0.246 µM (active) | GI50 (MDA-MB-231): 0.738 µM (active) | GI50 (SR): 0.133 µM (active) | GI50 (HOP-62): 0.327 µM (active) | GI50 (NCI-H522): 0.404 µM (active) | GI50 (BT-549): 0.811 µM (active) | GI50 (NCI-H23): 0.329 µM (active) | GI50 (HCT-116): 0.361 µM (active) | GI50 (TK-10): 2.81 µM (inactive) | GI50 (M14): 0.238 µM (active) | GI50 (HCT-15): 0.426 µM | GI50 (SK-MEL-5): 0.282 µM (active) | GI50 (OVCAR-5): 3.79 µM (inactive) | GI50 (MCF7): 0.502 µM (active) | GI50 (DU-145): 0.655 µM (active) | GI50 (Hs-578T): 0.269 µM (active)

C=CCO/N=C/c1cc(/N=C(/S)c2ccoc2C)ccc1Cl
GI50 (HT-29): 10.3 µM (inactive) | GI50 (LOX IMVI): 14.6 µM (inactive) | GI50 (SNB-19): 7.28 µM (inactive) | GI50 (U-251): 13.9 µM (inactive) | GI50 (OVCAR-3): 11.5 µM (inactive) | GI50 (MDA-MB-231): 13.3 µM (inactive) | GI50 (SR): 6.22 µM (inactive) | GI50 (HOP-62): 14.4 µM (inactive) | GI50 (NCI-H522): 8.22 µM (inactive) | GI50 (BT-549): 16.2 µM (inactive) | GI50 (NCI-H23): 10 µM (inactive) | GI50 (HCT-116): 10.9 µM (inactive) | GI50 (TK-10): 16.6 µM (inactive) | GI50 (M14): 16.6 µM (inactive) | GI50 (HCT-15): 8.26 µM | GI50 (SK-MEL-5): 11.4 µM (inactive) | GI50 (OVCAR-5): 16.6 µM (inactive) | GI50 (MCF7): 9.66 µM (inactive) | GI50 (DU-145): 14 µM (inactive) | GI50 (Hs-578T): 24.4 µM (inactive)

CC(Br)C(=O)NN1C2=C(Nc3ccccc31)c1cccc3cccc2c13 (stereo not given)
GI50 (HT-29): 49.1 µM (inactive) | GI50 (LOX IMVI): 41.4 µM (inactive) | GI50 (SNB-19): > 100 µM (inactive) | GI50 (U-251): 41.5 µM (inactive) | GI50 (OVCAR-3): 49.3 µM (inactive) | GI50 (MDA-MB-231): > 100 µM (inactive) | GI50 (SR): 41 µM (inactive) | GI50 (HOP-62): 22 µM (inactive) | GI50 (NCI-H522): 92 µM (inactive) | GI50 (BT-549): > 100 µM (inactive) | GI50 (NCI-H23): > 100 µM (inactive) | GI50 (HCT-116): > 100 µM (inactive) | GI50 (TK-10): 96.4 µM (inactive) | GI50 (M14): > 100 µM (inactive) | GI50 (HCT-15): 66.1 µM | GI50 (SK-MEL-5): 62.1 µM (inactive) | GI50 (OVCAR-5): > 100 µM (inactive) | GI50 (MCF7): 34.5 µM (inactive) | GI50 (DU-145): > 100 µM (inactive) | GI50 (Hs-578T): 58.9 µM (inactive)

O=[N+]([O-])c1ccc(C2NC(=S)NC3c4cc([N+](=O)[O-])ccc4CCCC23)cc1 (stereo not given)
GI50 (HT-29): > 100 µM (inactive) | GI50 (LOX IMVI): > 100 µM (inactive) | GI50 (SNB-19): 40.9 µM (inactive) | GI50 (U-251): 44.9 µM (inactive) | GI50 (OVCAR-3): 40.7 µM (inactive) | GI50 (MDA-MB-231): > 100 µM (inactive) | GI50 (SR): > 100 µM (inactive) | GI50 (HOP-62): 57.4 µM (inactive) | GI50 (NCI-H522): 69.7 µM (inactive) | GI50 (BT-549): 38.8 µM (inactive) | GI50 (NCI-H23): 67.3 µM (inactive) | GI50 (HCT-116): > 100 µM (inactive) | GI50 (TK-10): > 100 µM (inactive) | GI50 (M14): > 100 µM (inactive) | GI50 (HCT-15): > 100 µM | GI50 (SK-MEL-5): > 100 µM (inactive) | GI50 (OVCAR-5): > 100 µM (inactive) | GI50 (MCF7): 41.8 µM (inactive) | GI50 (DU-145): 33 µM (inactive) | GI50 (Hs-578T): > 100 µM (inactive)

CCN(CC)CCn1c2cc3c(cc2c(=O)c2cccnc21)OCO3
GI50 (HT-29): 4.04 µM (inactive) | GI50 (LOX IMVI): 3.71 µM (inactive) | GI50 (SNB-19): 8.07 µM (inactive) | GI50 (U-251): 6.65 µM (inactive) | GI50 (OVCAR-3): 5.14 µM (inactive) | GI50 (MDA-MB-231): 4.44 µM (inactive) | GI50 (SR): 4.34 µM (inactive) | GI50 (HOP-62): 3.61 µM (inactive) | GI50 (NCI-H522): 6.71 µM (inactive) | GI50 (BT-549): > 10 µM (inactive) | GI50 (NCI-H23): 8.75 µM (inactive) | GI50 (HCT-116): 4.79 µM (inactive) | GI50 (TK-10): 6.01 µM (inactive) | GI50 (M14): 4.95 µM (inactive) | GI50 (HCT-15): 3.72 µM | GI50 (SK-MEL-5): 2.77 µM (inactive) | GI50 (OVCAR-5): 4.44 µM (inactive) | GI50 (MCF7): 3.89 µM (inactive) | GI50 (DU-145): > 10 µM (inactive) | GI50 (Hs-578T): > 10 µM (inactive)

COc1ccc2cc(CNCCCN3CCN(CCCNCc4ccc5cc(OC)ccc5c4)CC3)ccc2c1
GI50 (HT-29): 0.49 µM (active) | GI50 (LOX IMVI): 0.55 µM (active) | GI50 (SNB-19): 1.76 µM (inactive) | GI50 (U-251): 1.75 µM (inactive) | GI50 (OVCAR-3): 1.63 µM (inactive) | GI50 (MDA-MB-231): 1.9 µM (inactive) | GI50 (SR): 0.333 µM (active) | GI50 (HOP-62): 1.65 µM (inactive) | GI50 (NCI-H522): 2.24 µM (inactive) | GI50 (BT-549): 1.78 µM (inactive) | GI50 (NCI-H23): 1.91 µM (inactive) | GI50 (HCT-116): 1.26 µM (inactive) | GI50 (TK-10): 1.89 µM (inactive) | GI50 (M14): 1.6 µM (inactive) | GI50 (HCT-15): 1.57 µM | GI50 (SK-MEL-5): 1.69 µM (inactive) | GI50 (OVCAR-5): 1.17 µM (inactive) | GI50 (MCF7): 1.35 µM (inactive) | GI50 (DU-145): 1.54 µM (inactive) | GI50 (Hs-578T): 1.52 µM (inactive)
